Reference: US11466007B2, “Substituted lactams showing serotonin 5-HT receptor activity” (Sumitomo Pharma Co., Ltd., priority 2018, dated 2022)

Experiment: Test 4: metabolic stability test in human hepatic microsome
Format: in vitro ADME
Details: 0.1 mg/mL microsome, 0.1 μmol/L compound, NADPH, 37° C., 30 minutes
Experimental: Test 4: Metabolic Stability Test in Human Hepatic Microsome
The stability of the present compound in human hepatic microsome metabolism was evaluated as mentioned below. Human hepatic microsome was obtained from Xenontech. Human hepatic microsome, NADPH, and each test compound were mixed in 25 mmol/L phosphate buffer solution (pH 7.4) to reach the following concentrations as shown below, and the mixture was incubated at 37° C. for 30 minutes. • Human hepatic microsome: 0.1 mg/mL • NAPDH: 3.2 mmol/L • Test compound: 0.1 μmol/L
The residual ratio of the test compound in each sample after 30 minutes was measured by LC-MS, and the metabolic stability in human hepatic microsome was calculated from the following formula. Metabolic stability in human hepatic microsome (mL/min/mg protein)=−LN(residual ratio)/30/0.1

Row | Compound | Metabolic stability in human hepatic microsome [mL/min/mg protein]
1 | Cc1nc2c(o1)C(=O)N(CCN1CCN(c3nsc4ccccc34)CC1)CCC2 [Example 46] | 0.018
2 | Cn1ncc2c1CCN(CCN1CCC(c3noc4ccccc34)CC1)C2=O [Example 130] | <0.05
3 | Cn1cnc2c1C(=O)N(CCN1CCC(c3noc4ccccc34)CC1)CC2 [Example 133] | <0.05
4 | COc1ncc2c(n1)CCN(CCN1CCN(c3nsc4ccccc34)CC1)C2=O [Example 177] | 0.095
5 | COc1cc2c(cn1)C(=O)N(CCN1CCN(c3nsc4ccccc34)CC1)CC2 [Example 2, 2-{2-[4-(1,2-Benzoisothiazol-3-yl)piperazin-1-yl]ethyl}-6-methoxy-3,4-dihydro-2,7-naphthyridin-1(2H)-one] | 0.22
6 | Cn1ncc2c1CCN(CCN1CCN(c3nsc4ccccc34)CC1)C2=O [Example 63] | <0.01
7 | Cc1cc2ccn(CCN3CCN(c4noc5ccccc45)CC3)c(=O)c2cn1 [Example 113, 2-{2-[4-(1,2-Benzoisoxazol-3-yl)piperazin-1-yl]ethyl}-6-methyl-2,7-naphthyridin-1(2H)-one] | 0.079
8 | Cc1nc2c(o1)C(=O)N(CCN1CCN(c3nsc4ccccc34)CC1)CC2 [Example 45] | 0.032
9 | O=C1c2cn(C3CC3)nc2CCN1CCN1CCC(c2noc3ccccc23)CC1 [Example 76] | 0.018
10 | Cc1nc2c(o1)CCCN(CCN1CCC(c3noc4ccccc34)CC1)C2=O [Example 157] | <0.05
11 | Cn1cnc2c1C(=O)N(CCN1CCC(c3noc4ccccc34)CC1)CCC2 [Example 134] | <0.05
12 | O=C1c2ncccc2CCN1CCN1CCC(c2noc3cc(F)ccc23)CC1 [Example 125] | <0.05
13 | O=C1c2nc(Cl)ccc2CCN1CCN1CCN(c2noc3ccccc23)CC1 [Example 144] | <0.05
14 | Cc1ncc2c(n1)CCN(CCN1CCC(c3noc4ccccc34)CC1)C2=O [Example 88, 6-{2-[4-(1,2-Benzoisoxazol-3-yl)piperidin-1-yl]ethyl}-2-methyl-7,8-dihydropyrido[4,3-d]pyrimidin-5(6H)-one] | <0.01
15 | Cc1cc2c(n1C)CCCN(CCN1CCC(c3noc4ccccc34)CC1)C2=O [Example 166] | <0.05
16 | O=C1c2ncccc2CCN1CCN1CCN(c2noc3cc(F)ccc23)CC1 [Example 123] | <0.05
17 | Cc1nn(C)c2c1C(=O)N(CCN1CCC(c3noc4ccccc34)CC1)CCC2 [Example 91] | <0.05
18 | Cn1ncc2c1CCCN(CCN1CCN(c3nsc4ccccc34)CC1)C2=O [Example 44] | 0.04
19 | O=C1c2[nH]ncc2CCN1CCN1CCC(c2noc3ccccc23)CC1 [Example 98, 6-{2-[4-(1,2-Benzoisoxazol-3-yl)piperidin-1-yl]ethyl}-1,4,5,6-tetrahydro-7H-pyrazolo[3,4-c]pyridin-7-one] | 0.013
20 | O=C1c2ncccc2CCC1CCN1CCC(c2noc3ccccc23)CC1 (stereo not shown) [Example 24] | 0.018
21 | COc1cc2c(cn1)C(=O)N(CCN1CCC(c3noc4ccccc34)CC1)CC2 [Example 14] | <0.01
22 | Cc1nc2c(o1)CCN(CCN1CCC(c3noc4ccccc34)CC1)C2=O [Example 39] | 0.016
23 | Cc1nn(C)c2c1C(=O)N(CCN1CCN(c3noc4ccccc34)CC1)CCC2 [Example 92] | 0.065
24 | CCn1ncc2c1CCN(CCN1CCN(c3nsc4ccccc34)CC1)C2=O [Example 64] | 0.064

Next, values leading:

Row | Metabolic stability in human hepatic microsome [mL/min/mg protein] | Compound
25 | 0.064 | O=c1c2ncccc2ccn1CCN1CCN(c2nsc3ccccc23)CC1 [Example 8]
26 | <0.05 | O=C1c2cnn(C3CC3)c2CCN1CCN1CCC(c2noc3ccccc23)CC1 [Example 161]
27 | <0.05 | O=C1c2nc[nH]c2CCN1CCN1CCC(c2noc3ccccc23)CC1 [Example 191, 5-{2-[4-(1,2-Benzoisoxazol-3-yl)piperidin-1-yl]ethyl}-6,7-dihydro[1,3]imidazolo[4,5-c]pyridin-4(5H)-one]
28 | 0.065 | Cn1ncc2c1CCCC(CCN1CCC(c3noc4ccccc34)CC1)C2=O (stereo not shown) [Example 30]
29 | 0.056 | O=C1c2oc(C3CC3)nc2CCN1CCN1CCC(c2noc3ccccc23)CC1 [Example 68]
30 | 0.02 | O=c1c2ncccc2ccn1CCN1CCC(c2noc3cc(F)ccc23)CC1 [Example 12]
31 | <0.05 | Cc1c2c(nn1C)CCN(CCN1CCN(c3noc4ccccc34)CC1)C2=O [Example 171]
32 | <0.01 | Cn1ccc2c1CCCN(CCN1CCC(c3noc4ccccc34)CC1)C2=O [Example 103, 5-{2-[4-(1,2-Benzoisoxazol-3-yl)piperidin-1-yl]ethyl}-1-methyl-5,6,7,8-tetrahydropyrrolo[3,2-c]azepin-4(1H)-one]
33 | 0.017 | Cc1c2c(nn1C)CCN(CCN1CCC(c3noc4ccccc34)CC1)C2=O [Example 37, 5-{2-[4-(1,2-Benzoisoxazol-3-yl)piperidin-1-yl]ethyl}-2,3-dimethyl-2,5,6,7-tetrahydro-4H-pyrazolo[4,3-c]pyridin-4-one]
34 | <0.05 | CC(C)n1ncc2c1CCN(CCN1CCC(c3noc4ccccc34)CC1)C2=O [Example 159]
35 | <0.05 | COc1ncc2c(n1)CCN(CCN1CCC(c3noc4ccccc34)CC1)C2=O [Example 176]
36 | 0.056 | Cn1ccc2c1CCN(CCN1CCN(c3nsc4ccccc34)CC1)C2=O [Example 61]
37 | <0.05 | Cc1ccc2c(n1)C(=O)N(CCN1CCN(c3noc4ccccc34)CC1)CC2 [Example 183]
38 | 0.084 | O=c1c2cncnc2ccn1CCN1CCC(c2noc3ccccc23)CC1 [Example 129]
39 | <0.01 | O=C1c2ncccc2CCN1CCN1CCN(c2noc3ccccc23)CC1 [Example 1, 7-{2-[4-(1,2-Benzoisoxazol-3-yl)piperazin-1-yl]ethyl}-6,7-dihydro-1,7-naphthyridin-8(5H)-one]
40 | 0.063 | Cn1ncc2c1CCC(CCN1CCN(c3nsc4ccccc34)CC1)C2=O (stereo not shown) [Example 29]

Row | Metabolic stability in human hepatic microsome [mL/min/mg protein] | Compound
41 | <0.05 | CC(CN1CCC(c2noc3cc(F)ccc23)CC1)N1CCc2cccnc2C1=O (stereo not shown) [Example 122]
42 | 0.046 | Cc1nccc2c1C(=O)N(CCN1CCN(c3noc4ccccc34)CC1)CC2 [Example 85]
43 | <0.05 | O=C1c2cccnc2CCN1CCN1CCC(c2noc3cc(F)ccc23)CC1 [Example 121]
44 | <0.05 | O=C1c2cn[nH]c2CCN1CCN1CCC(c2noc3ccccc23)CC1 [Example 189, 5-{2-[4-(1,2-Benzoisoxazol-3-yl)piperidin-1-yl]ethyl}-1,5,6,7-tetrahydro-4H-pyrazolo[4,3-c]pyridin-4-one]
45 | <0.05 | Cc1nc(C)c2c(n1)CCN(CCN1CCC(c3noc4ccccc34)CC1)C2=O [Example 139]
46 | 0.041 | O=C1c2ncccc2CCN1CCN1CCN(c2nsc3ccccc23)CC1 [Example 7]
47 | 0.050 | Cc1ccc2onc(C3CCN(CCN4CCc5cccnc5C4=O)CC3)c2c1 [Example 89]
48 | 0.100 | O=C1c2cccnc2CCN1CCN1CCN(c2nsc3ccccc23)CC1 [Example 9]
49 | <0.05 | Cc1ccc2c(n1)C(=O)N(CCN1CCC(c3noc4ccccc34)CC1)CC2 [Example 184]
50 | <0.05 | Cn1ncc2c1CCN(CCN1CCN(c3noc4ccccc34)CC1)C2=O [Example 131]
51 | <0.05 | Cn1cc2c(n1)C(=O)N(CCN1CCC(c3noc4ccccc34)CC1)CC2 [Example 156]
52 | 0.097 | CC(C)c1nc2c(o1)C(=O)N(CCN1CCC(c3noc4ccccc34)CC1)CC2 [Example 164]
53 | <0.05 | Cn1ccc2c1CCN(CCN1CCN(c3noc4ccccc34)CC1)C2=O [Example 170]
54 | 0.13 | O=C1c2cnn(C3CC3)c2CCN1CCN1CCN(c2nsc3ccccc23)CC1 [Example 160]
55 | <0.05 | O=C1c2cccnc2CCN1CCN1CCN(c2noc3ccccc23)CC1 [Example 153, 6-{2-[4-(1,2-Benzoisoxazol-3-yl)piperazin-1-yl]ethyl}-7,8-dihydro-1,6-naphthyridin-5(6H)-one]
